Measurements reported in patent US20220204473A1, “COMPOUND AS IRAK INHIBITOR” (SHANGHAI MEIYUE BIOTECH DEVELOPMENT CO., LTD., priority 2018, published 2022).

Assays:
human IRAK4 = target: T1, human IRAK4 (Homo sapiens, UniProt Q9NWZ3); assay: IRAK4 MSA (Mobility-Shift Assay) at Km ATP; format: biochemical; conditions: GST-IRAK4 1 nM, ATP 37 μM (Km); read-out: IC50 for inhibiting human IRAK4 kinase
T1 construct: purchased Cama (so in the source)
T1 sequence (Q9NWZ3 1-460): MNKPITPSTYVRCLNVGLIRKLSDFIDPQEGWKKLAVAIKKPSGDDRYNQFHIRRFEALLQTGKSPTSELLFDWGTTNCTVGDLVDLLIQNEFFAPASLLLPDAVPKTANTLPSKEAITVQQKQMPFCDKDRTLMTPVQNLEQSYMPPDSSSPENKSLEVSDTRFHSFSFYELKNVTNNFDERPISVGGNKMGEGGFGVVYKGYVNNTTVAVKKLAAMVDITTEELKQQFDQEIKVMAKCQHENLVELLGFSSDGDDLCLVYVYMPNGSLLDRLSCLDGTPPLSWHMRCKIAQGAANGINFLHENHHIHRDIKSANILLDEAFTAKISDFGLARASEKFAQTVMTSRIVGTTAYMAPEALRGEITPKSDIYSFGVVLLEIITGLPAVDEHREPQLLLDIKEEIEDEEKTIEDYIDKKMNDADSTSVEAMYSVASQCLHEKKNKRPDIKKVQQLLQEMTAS
Method: A recombinant fusion protein of N-terminal GST (glutathione-S-transferase) and human IRAK4 was used as enzyme (GST-IRAK4, kinase IRAK4 (Cama)) at a final concentration of 1 nM; ATP (Sigma) was at a final concentration of 37 μM; the substrates used for the kinase reaction were a 5-FAM (5-carboxyfluorescein)-labeled polypeptide (5-FAM-[…]-COOH) and a substrate peptide FAM-P8 (GL Biochem) at final concentrations of […].
In this assay, 500 μM solutions of the compounds were prepared in 100% DMSO, and serially 4-fold diluted to the 10th concentration gradient with 100% DMSO, followed by a 10-fold dilution in the compound buffer (50 mM HEPES. pH 7.5, 0.00015% Brij-35) to give intermediate dilutions of the compounds at a final concentration of 10 μM-0.04 nM containing 10% DMSO respectively, 5 μL of the dilutions were transferred into a black 384-well plate respectively.
IRAK4 was diluted to 2.5 nM in the kinase buffer (50 mM HEPES, pH 7.5, 0.00015% Brij-35, 2 mM DTT). 10 μL of the IRAK4 dilution was transferred to the 384-well plate and co-incubated with the compound for 10-15 min.
(§1) The substrate and ATP were diluted to 12.5 μM and 92.5 μM with reaction buffer (50 mM HEPES, pH 7.5, 0.00015% Brij-35, 10 mM MgCl2), respectively. 10 μL of the dilutions were transferred to a 384-well plate and incubated at 28° C. for 1 h respectively. The reaction was terminated by adding 25 μL of 50 mM EDTA to the 384-well plate.
The inhibition rates of IRAK4 by the compounds were calculated by measuring the rate of phosphorylated substrate using a Caliper EZ Reader (PerkinElmer) and the IC50 values were calculated by XL-fit software.

human IRAK1 = target: T2, human IRAK1 (Homo sapiens, UniProt P51617); assay: IRAK1 MSA (Mobility-Shift Assay) at Km ATP; format: biochemical
T2 construct: purchased Cama (so in the source)
Method: 5 μL of the intermediate dilutions were transferred into a black 384-well plate.
IRAK1 was diluted to 7.5 nM in the kinase buffer (50 mM HEPES, pH 7.5, 0.00015% Brij-35, 2 mM DTT). 10 μL of the IRAK1 dilution was transferred to the 384-well plate and co-incubated with the compound for 10-15 min.
as §1, with “and 242.5” for “and 92.5”, “dilutions was” for “dilutions were”, “1 h.” for “1 h respectively.”
The inhibition rates of IRAK1 by the compounds were calculated by measuring the rate of phosphorylated substrate using a Caliper EZ Reader (PerkinElmer) and the IC50 values were calculated by XL-fit software.

CYP1A2 = target: T3, CYP1A2 (Homo sapiens, UniProt P05177); assay: CYP450 inhibition in human liver microsomes, CYP1A2; format: in vitro ADME
T3 construct: tissue Corning (USA); host or cells: mixed human liver microsomes
T3 sequence (P05177 1-516): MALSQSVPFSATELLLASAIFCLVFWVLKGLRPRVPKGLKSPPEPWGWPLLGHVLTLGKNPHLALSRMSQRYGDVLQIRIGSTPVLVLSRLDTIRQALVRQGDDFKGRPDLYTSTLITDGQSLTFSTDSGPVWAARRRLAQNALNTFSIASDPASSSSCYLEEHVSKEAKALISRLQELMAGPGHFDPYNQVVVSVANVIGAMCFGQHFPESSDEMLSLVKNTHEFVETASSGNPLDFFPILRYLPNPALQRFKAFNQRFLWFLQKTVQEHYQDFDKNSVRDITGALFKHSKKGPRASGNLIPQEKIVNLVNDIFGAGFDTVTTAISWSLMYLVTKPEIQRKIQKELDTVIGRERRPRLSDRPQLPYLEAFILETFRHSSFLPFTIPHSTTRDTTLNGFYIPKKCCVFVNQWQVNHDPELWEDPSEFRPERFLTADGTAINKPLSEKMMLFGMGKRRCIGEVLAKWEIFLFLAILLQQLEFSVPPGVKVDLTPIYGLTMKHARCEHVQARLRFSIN
Method: (§2) This study was intended to investigate the inhibitory effect of the test compounds on five major CYP450 enzyme subtypes CYP1A2, 2C9, 2C19, 2D6 and 3A4 in human liver microsomes. The mixed human liver microsomes used in this assay were purchased from Corning (USA). The test compounds were co-incubated at 7 concentrations with human liver microsomes and five probe substrates (phenacetin for CYP1a2, diclofenac for CYP2C9, mephenytoin for CYP2C19, dextromethorphan for CYP2D6, midazolam for CYP3A4-M, mixed). The reaction was initiated by adding coenzyme NADPH, and terminated by adding acetonitrile containing internal standard. After the proteins were precipitated, the supernatant was centrifuged. The characteristic metabolites in the supernatant (acetaminophen for CYP1A2, 4-hydroxydiclofenac for CYP2C9, 4-hydroxymephenytoin for CYP2C19, dextrorphan for CYP2D6, 1-hydroxymidazolam for CYP3A4-M) were analyzed by LC-MS/MS. The influence of the test compounds on production of the characteristic metabolites was finally analyzed on the basis of the data obtained. A selective inhibitor (ketoconazole for CYP3A4-M) was used as positive control. All samples were tested in duplicate.

CYP2C9 = target: T4, CYP2C9 (Homo sapiens, UniProt P11712); assay: CYP450 inhibition in human liver microsomes, CYP2C9; format: in vitro ADME
T4 construct: tissue Corning (USA); host or cells: mixed human liver microsomes
Method: as §2

CYP2C19 = target: T5, CYP2C19 (Homo sapiens, UniProt P33261); assay: CYP450 inhibition in human liver microsomes, CYP2C19; format: in vitro ADME
T5 construct: tissue Corning (USA); host or cells: mixed human liver microsomes
Method: as §2

CYP2D6 = target: T6, CYP2D6 (Homo sapiens, UniProt P10635); assay: CYP450 inhibition in human liver microsomes, CYP2D6; format: in vitro ADME
T6 construct: tissue Corning (USA); host or cells: mixed human liver microsomes
Method: as §2

CYP3A4 = target: T7, CYP3A4 (Homo sapiens, UniProt P08684); assay: CYP450 inhibition in human liver microsomes, CYP3A4; format: in vitro ADME
T7 construct: tissue Corning (USA); host or cells: mixed human liver microsomes
Method: as §2

T2 sequence (P51617 whole entry): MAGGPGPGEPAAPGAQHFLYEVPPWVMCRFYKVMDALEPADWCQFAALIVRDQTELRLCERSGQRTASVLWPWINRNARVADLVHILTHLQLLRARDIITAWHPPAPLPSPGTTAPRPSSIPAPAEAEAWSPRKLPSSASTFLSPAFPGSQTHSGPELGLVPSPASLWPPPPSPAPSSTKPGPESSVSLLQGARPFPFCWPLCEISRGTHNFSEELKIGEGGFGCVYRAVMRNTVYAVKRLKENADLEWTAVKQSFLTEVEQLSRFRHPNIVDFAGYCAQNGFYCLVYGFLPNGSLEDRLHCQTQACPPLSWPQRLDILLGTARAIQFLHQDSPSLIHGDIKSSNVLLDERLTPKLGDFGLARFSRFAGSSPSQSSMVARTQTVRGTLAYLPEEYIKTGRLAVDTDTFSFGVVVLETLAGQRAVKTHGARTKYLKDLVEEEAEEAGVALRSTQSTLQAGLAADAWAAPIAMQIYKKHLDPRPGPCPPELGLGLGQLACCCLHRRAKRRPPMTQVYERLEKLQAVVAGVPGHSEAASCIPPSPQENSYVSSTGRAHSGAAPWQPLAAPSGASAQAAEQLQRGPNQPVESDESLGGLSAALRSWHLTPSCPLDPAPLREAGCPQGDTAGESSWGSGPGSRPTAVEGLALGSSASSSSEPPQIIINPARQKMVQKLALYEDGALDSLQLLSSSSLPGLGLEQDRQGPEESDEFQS
T7 sequence (P08684 whole entry): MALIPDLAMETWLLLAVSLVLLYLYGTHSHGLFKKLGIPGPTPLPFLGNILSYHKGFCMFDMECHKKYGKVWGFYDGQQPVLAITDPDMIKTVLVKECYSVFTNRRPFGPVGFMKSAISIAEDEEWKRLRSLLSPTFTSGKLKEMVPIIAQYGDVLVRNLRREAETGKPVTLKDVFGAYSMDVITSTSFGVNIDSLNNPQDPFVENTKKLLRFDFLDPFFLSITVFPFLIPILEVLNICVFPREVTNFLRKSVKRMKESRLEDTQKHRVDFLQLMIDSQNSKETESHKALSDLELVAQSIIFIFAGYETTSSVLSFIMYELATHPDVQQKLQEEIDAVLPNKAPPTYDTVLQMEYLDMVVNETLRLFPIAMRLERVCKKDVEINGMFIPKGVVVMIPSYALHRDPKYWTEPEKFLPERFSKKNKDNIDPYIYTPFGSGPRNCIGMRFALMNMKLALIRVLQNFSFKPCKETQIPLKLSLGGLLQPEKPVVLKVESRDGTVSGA
T6 sequence (P10635 whole entry): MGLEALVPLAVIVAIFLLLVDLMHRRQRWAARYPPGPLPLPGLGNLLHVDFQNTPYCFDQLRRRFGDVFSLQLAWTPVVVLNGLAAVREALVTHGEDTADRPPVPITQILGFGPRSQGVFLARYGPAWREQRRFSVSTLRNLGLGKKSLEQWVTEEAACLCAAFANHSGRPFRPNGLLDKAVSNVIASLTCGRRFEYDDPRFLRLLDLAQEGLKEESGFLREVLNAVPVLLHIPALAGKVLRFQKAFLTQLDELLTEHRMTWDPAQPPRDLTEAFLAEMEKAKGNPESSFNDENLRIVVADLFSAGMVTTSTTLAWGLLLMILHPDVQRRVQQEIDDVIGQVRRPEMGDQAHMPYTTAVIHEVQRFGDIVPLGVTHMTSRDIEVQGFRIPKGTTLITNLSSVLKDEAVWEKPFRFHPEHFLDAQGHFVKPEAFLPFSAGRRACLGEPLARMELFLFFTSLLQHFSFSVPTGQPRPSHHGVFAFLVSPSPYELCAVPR
T5 sequence (P33261 whole entry): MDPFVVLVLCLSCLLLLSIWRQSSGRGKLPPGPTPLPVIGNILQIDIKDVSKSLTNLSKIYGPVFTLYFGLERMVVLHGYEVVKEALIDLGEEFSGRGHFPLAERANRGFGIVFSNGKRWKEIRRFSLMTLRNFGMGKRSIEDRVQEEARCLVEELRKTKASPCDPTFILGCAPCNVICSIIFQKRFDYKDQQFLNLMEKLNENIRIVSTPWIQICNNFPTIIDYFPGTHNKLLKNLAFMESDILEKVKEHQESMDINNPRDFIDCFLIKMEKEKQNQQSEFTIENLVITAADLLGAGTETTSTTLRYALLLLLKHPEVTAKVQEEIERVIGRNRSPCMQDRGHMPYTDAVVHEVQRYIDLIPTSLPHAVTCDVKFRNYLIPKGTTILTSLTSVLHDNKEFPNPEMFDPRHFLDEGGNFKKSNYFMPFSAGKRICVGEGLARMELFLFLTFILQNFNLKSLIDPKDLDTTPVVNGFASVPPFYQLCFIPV
T4 sequence (P11712 whole entry): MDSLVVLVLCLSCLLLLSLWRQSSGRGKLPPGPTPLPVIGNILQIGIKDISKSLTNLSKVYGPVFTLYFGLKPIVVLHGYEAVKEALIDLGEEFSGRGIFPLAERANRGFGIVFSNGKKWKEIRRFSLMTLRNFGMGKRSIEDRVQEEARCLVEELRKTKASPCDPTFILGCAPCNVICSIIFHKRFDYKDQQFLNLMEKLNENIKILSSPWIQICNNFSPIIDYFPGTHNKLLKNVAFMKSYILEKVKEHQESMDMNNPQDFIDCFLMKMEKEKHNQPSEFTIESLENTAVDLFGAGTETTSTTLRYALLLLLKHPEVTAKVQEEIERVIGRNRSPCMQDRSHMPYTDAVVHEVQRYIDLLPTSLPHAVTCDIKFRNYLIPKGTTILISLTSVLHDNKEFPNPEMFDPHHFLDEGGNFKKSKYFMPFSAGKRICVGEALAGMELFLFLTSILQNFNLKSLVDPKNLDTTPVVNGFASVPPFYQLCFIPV

IC50 (human IRAK4) [µM]	IC50 (human IRAK1) [µM]	IC50 (IRAK1)/IC50 (IRAK4) (human IRAK1; selectivity for IRAK4)	IC50 (CYP1A2) [µM]	IC50 (CYP2C9) [µM]	IC50 (CYP2C19) [µM]	IC50 (CYP2D6) [µM]	IC50 (CYP3A4) [µM]	Structure (SMILES)
0.0058	4.32	745	–	–	–	–	–	CC(C)(O)c1cc2nn([C@H]3C[C@H](C(C)(C)O)C3)cc2cc1NC(=O)c1cccc(C(F)(F)F)n1 [MY-004-109]
–	–	–	2.91	19.1	23.5	> 30	> 30	CC(C)(O)CCn1cc2cc(NC(=O)c3cccc(C(F)(F)F)n3)c(C(C)(C)O)cc2n1 [MYA, reference compound]
